Here are results for one compound from US8399525B2, “Treatment of gaucher disease with specific pharmacological chaperones and monitoring treatment using surrogate markers” (Amicus Therapeutics, Inc., priority 2007, dated 2013).

The structures appear in SMILES notation.

Data set [1] has as its system L444P transgenic mice. The data set is described as follows: Body and tissue weight measurements in L444P transgenic mice. Format: in vivo. On the procedure:
(§1) Isofagomine treatment. Mice were administered isofagomine tartrate in their drinking water, ad libitum, at a concentration of 20 mg/kg.
(§2) Surrogate marker measurement. At the end of 4, 12, or 24 weeks, mice were sacrificed and evaluated for (i) enhancement of GCase enzyme activity in liver, spleen, lung and brain; (ii) chitotriosidase activity; (ii) body, spleen, and liver weight; and (iv) serum IgG, cholesterol, and liver enzyme levels. In addition, chaperone concentration in plasma and in the foregoing tissues will also be determined.
b. Body and tissue weight measurements: Animals were weighed prior to sacrifice after […]. Following sacrifice, spleen and liver were removed and weighed.

The nature of data set [2]: Cholesterol and liver enzyme measurement in L444P transgenic mice. Format: in vivo. The following applies: treated versus untreated at 4 or 12 weeks. The protocol:
as §1, §2
e. Cholesterol and liver enzyme measurement. These were measured according to ordinary techniques.

On to `OC[C@H]1CNC[C@@H](O)[C@@H]1O` [isofagomine, (3R,4R,5R)-5-(hydroxymethyl)-3,4-piperidinediol], for which, in data set [1] (after 12 weeks), the liver weight entry is “did not significantly change”. In addition, the body weight result in data set [1] (after 12 weeks of treatment, wild-type about 40 g, untreated about 29 g) is recorded as “about 33 g”. The liver weight result in data set [1] (after 24 weeks) is “significant reduction”. Moreover, in data set [2], the “alanine aminotransferase (ALT)” value is recorded as “no significant differences”, the “aspartate aminotransferase (AST)” value is reported as “no significant differences” and the cholesterol result is “no significant differences”.
